In patent US5767298A, “Aminophospholipid compositions and uses thereof” (Indiana University Foundation, priority 1996, dated 1998):
Blank lines part the entries; values can stand above or below the compound they belong to.

Columns and labels:
human erythrocytes [1] = experiment: Erythrocyte shape change (morphological index): incorporation, uncaging and transport of lipid; type: cell-based
Procedure: (§1) A. Timecourse of erythrocyte shape change (morphological index) induced in washed human erythrocytes by C-DOPS liposomes (200 μM) incubated in HBS. At 45 min (arrow), one set of cells was centrifuged, resuspended in citrate buffer (100 mM, pH 5.5) and re-incubated at 37° C. (open circles). Aliquots were fixed with glutaraldehyde and analyzed by light microscopy. B. Low pH-induced cleavage of C-DOP^3 HS in human erythrocytes. Washed human red cells were treated with C-DOP^3 HS (55 nCi) for 45 min at 37° C. in HBS. After centrifugation, the cells were resuspended in citrate buffer (pH 5.5) and reincubated at 37° C. At the indicated timepoints, lipids were extracted from aliquots of cells, C-DOP^3 HS and DOP^3 HS were separated by thin layer chromatography, and radiolabeled lipids were quantitated by scintillation counting.
Washed human erythrocytes were incubated with sonicated suspensions of DLPS (200 μM, open circles, filled circles) or DLPC (200 μM, open squares) in citrate buffer pH 5.5 (open symbols) or in HBS (filled symbols) at 37° C. Aliquots were fixed with glutaraldehyde and analyzed by light microscopy.
(§2) Timecourse of erythrocyte shape change (MI) induced by suspensions of C-DLPS (200 μM, open circles, open triangles) and DLPC (200 μM, open squares) in HBS. After 15 min (arrow), one sample of cells (open circles) was centrifuged, resuspended in citrate buffer (100 mM, pH 5.5) and re-incubated at 37° C. At 15 or 75 min, aliquots of each sample were removed and treated with DOPC vesicles (20 mM, 5% HCT) for 15 min at 37° C. (closed symbols). At the indicated times aliquots were fixed with glutaraldehyde and analyzed by light microscopy.
Cells. Human erythrocytes were obtained from healthy adult volunteers by venipuncture and collected into EDTA (3.3 mM final concentration). Erythrocytes were pelleted by centrifugation (5 min, 3000 g), washed three times in Hepes buffered saline (HBS, 118 mM NaCl, 50 mM Hepes, 5 mM KCl, 1 mM MgSO4, 5 mM glucose, pH 8.25), and stored on ice at 50% hematocrit (HCT).
Phosphatidylserine transport assay. Previously washed erythrocytes were pelleted by centrifugation (5 min, 3000 g) and incubated at 50% HCT with sonicated DLPS, DLPC, C-DLPS, or C-DOPS vesicles (200 μM) in HBS according to the method of Daleke and Huestis (1985). At prescribed time points, the cells were fixed by adding 5 μL aliquots to 50 μL of glutaraldehyde (0.5%). Aliquots of fixed cells were examined by light microscopy for changes in cell morphology. Echinocytes were assigned scores of +1 to +5 based on the degree of […], discocytes were scored 0, and stomatocytes were given scores of -1 to -4 based on their degree of […] (Daleke & Huestis, 1989). Echinocytic shapes are indicative of cells with excess lipid in the outer monolayer, while stomatocytic shapes are indicative of cells with excess inner monolayer lipid (Sheetz & Singer, 1974). Thus, cell morphology can be used to measure the movement of exogenously added lipids from the outer to the inner monolayer. The average score of a field of 100 cells is defined as the morphological index (MI).
Hydrolysis of C-DOPS in human erythrocytes. Washed red blood cells were incubated with sonicated C-DOPS vesicles (200 μM) in HBS at 50% HCT for 45 min at 37° C. After 45 min (C-DOPS), the cells were centrifuged (16,000 g, 5 min) and the supernatant was removed. The cells were washed once with a citrate buffer (50 mM, 300 mOsM, pH 5.25) and then incubated at 20% HCT for varying lengths of time in citrate buffer. […] The final pH of the red cell suspensions in HBS was 7.58±0.02 and those suspensions in citrate buffer was 5.72±0.03 pH units. The values were corrected for temperature (37° C.). At the specified time points, an aliquot of cells was fixed and examined by light microscopy.

[2] = pH-dependent cleavage of caged aminophospholipids (MLVs, 1 h, 37° C., phosphate analysis of TLC-separated lipids); type: physicochemical; settings: for cleavage at pH 3: after extended incubation at pH 3; for significant cleavage at physiologically desirable pH: pH 5.5-8, 37° C.; for pH of half-maximal cleavage: 1 h at 37° C.; for cleavage at any pH: pH 3-8, 1 h, 37° C.
Procedure: Derivatized aminophospholipids (C-DOPS (open circles), C-DOPE (filled circles), M-DOPE (open squares), D-DOPE (filled squares), T-DOPE (open triangles), and P-DOPE (filled triangles), 0.5 mM each) were suspended in citrate (pH 3, 4.5, and 6) or Hepes (pH 7 and 8) buffer and incubated for 1 h at 37° C.
pH-Dependent cleavage measurements. A chloroform solution of the "caged" aminophospholipid (0.1 μmol) being tested was dried under nitrogen and the lipid was resuspended in buffers (200 μL) of varying pH; pH 3 (50 mM citrate), pH 4.5 (50 mM citrate), pH 6 (50 mM citrate), pH 7 (50 mM Hepes), and pH 8 (50 mM Hepes), adjusted to physiological ionic strength (290-310 mOsM) with NaCl. Solutions were vortexed briefly to make multilamellar vesicles (MLVs) and placed in a shaking water bath for 1 h at 37° C. The reaction was quenched after 1 h with a Hepes buffer (0.5M, pH 8.0). The lipid was extracted and the aqueous phase washed twice with chloroform. The derivative was separated from DOPE or DOPS by normal phase silica TLC eluted with CHCl3:CH3OH:NH4OH:H2O (65:25:2.5:2.5). The fraction cleaved was determined by phosphate analysis of the corresponding iodine stained spots. A background measurement, not incubated at 37° C. for 1 h, but subjected to the same extraction and TLC procedures, was performed to correct for hydrolysis that occurred during workup. All measurements were completed in triplicate.
The pH dependence of cleavage of the DOPS and DOPE derivatives was determined by incubating lipid dispersions (MLVs) in buffers of varying pH for 1 h at 37° C. Hydrolysis was measured by phosphate analysis of TLC-separated products.

human erythrocytes [3] = experiment: Back extraction of dilauroyl phospholipids from human erythrocytes with DOPC vesicles; type: cell-based
Procedure: as §2
Back extraction of dilauroyl phospholipids from human erythrocytes. Washed red blood cells were incubated with DLPS, DLPC, or C-DLPS (200 μM) in HBS at 50% HCT for 90 min at 37° C. After 15 min, an aliquot of the cells was removed and the short chain phospholipids in the outer monolayer were back extracted with sonicated DOPC vesicles (20 mM) in HBS at 5% HCT for 15 min at 37° C. A separate aliquot of C-DLPS-treated cells was removed at 15 min, centrifuged, resuspended in citrate buffer (pH 5.5), and reincubated at 37° C. After 60 min, an aliquot from the cells incubated at low pH was removed and the short chain phospholipids remaining in the outer monolayer were back extracted with DOPC. Two additional control experiments were performed: 1] DLPC (200 μM) was incorporated into cells as described above for 15 min and then back extracted with DOPC vesicles, and 2] cells without exogenously added lipid were incubated with DOPC vesicles under the conditions of the back extraction assay. In each of the forgoing experiments aliquots were removed at the prescribed time points and the morphological index was determined by light microscopy.

[4] = for time constant tau1 (initial fast component) / time constant tau2 (slow component): biexponential fit; for half-time for cleavage: citrate buffer, pH 5.5
Procedure: The extent of cleavage was determined by phosphate analysis of thin layer chromatographic separations of extracted lipids. The solid lines are non-linear least squares fits of the data to a double exponential equation (f(x)=α1*exp(-x/.tau.1)+α2*exp(-x/.tau.2)).
C-DOPE (0.5 mM, column 1) and C-DOPS (0.5 mM, columns 2-5) were suspended in citrate buffer, pH 5.5 (columns 1 and 2) containing Triton X-100 (0.1%, column 3), NaCl (1M, column 4) or egg PC (2.5 mM, column 5) and incubated for 1 h at 37° C. The extent of cleavage was quantitated by phosphate determination of thin layer chromatographic separations of extracted lipids. Kinetic parameters were determined by non-linear least squares fits of the data to a double exponential equation (see FIG. 2): A. Exponential coefficients α1 (open bars) and α2 (filled bars) B. Time constants .tau.1 (open bars) and .tau.2 (filled bars).
Chloroform solutions of C-DOPS or C-DOPE (0.1 μmol) were dried under nitrogen and resuspended in 200 μL of citrate buffer (50 mM, pH 5.5). MLVs were prepared as described above and placed in a shaking water bath at 37° C. At prescribed time points, the reaction was quenched with 50 μL of Hepes buffer (1M, pH 8.5), the lipid was extracted, and the amount of cleavage was determined by phosphate analysis of TLC-separated lipids.
In one set of experiments, the ionic strength of the citrate incubation buffer (pH 5.5) was raised by including 1M NaCl and cleavage was measured as described above. In a second set of experiments, C-DOPS cleavage was measured in the presence of Triton X-100 (0.1%). In a third set of experiments, a five fold excess of DOPC was add to the lipid suspensions to dilute the surface charge. In a fourth set of experiments, ethanol (0.05-0.5%), DTT (5 mM), aniline (1.5 mM), p-nitroaniline (1.5 mM), and DOPE (2.5 mM) were added in separate experiments to the incubation buffers as scavengers of the anhydride. The lipid products were extracted and isolated by thin-layer chromatography as described previously. A single time point at 2.5 or 3 h was analyzed. All measurements were completed in triplicate and data were fit to a biexponential equation (f(x)=α1*exp(-x/.tau.1)+α2*exp(-x/.tau.2)) using the program MacCurveFit (Kevin Raner, Mt. Waverley, Australia).

[5] = tested on: aminophospholipid transporter, or "flippase"; settings: cited from earlier work; for inhibition of flippase: Seigneuret & Devaux, 1984, Daleke & Huestis, 1985, Connor & Schroit, 1987, Bitbol et al.
human erythrocytes [6] = experiment: Cleavage of C-DOP^3 HS in intact human erythrocytes (TLC, scintillation counting); type: cell-based; settings: citrate buffer pH 5.5, 37° C.
Procedure: as §1
Hydrolysis of C-DOPS in human erythrocytes. […]
Uncaging of the C-DOPS derivative was measured in human red blood cells in order to test the feasibility of using the compound as a probe of aminophospholipid transport in biological membranes. […] Cleavage of C-DOP^3 HS was measured directly in intact erythrocytes. […] Following exchange with citrate buffer (pH 5.5), the cells were incubated at 37° C. and hydrolysis was measured by analysis of extracted lipids separated by thin layer chromatography.

[7] = pH 5.5
Procedure: In a fourth set of experiments, ethanol (0.05-0.5%), DTT (5 mM), aniline (1.5 mM), p-nitroaniline (1.5 mM), and DOPE (2.5 mM) were added in separate experiments to the incubation buffers as scavengers of the anhydride. The lipid products were extracted and isolated by thin-layer chromatography as described previously. A single time point at 2.5 or 3 h was analyzed. All measurements were completed in triplicate and data were fit to a biexponential equation (f(x)=α1*exp(-x/.tau.1)+α2*exp(-x/.tau.2)) using the program MacCurveFit (Kevin Raner, Mt. Waverley, Australia).
This hypothesis was tested by using nucleophilic scavengers to trap the released anhydride. Both water soluble (dithiothreitol, ethanol) and lipophilic (aniline, p-nitroaniline, and DOPE) scavengers were added to C-DOPS solutions and cleavage was measured at a timepoint when the slow rate of cleavage predominated (Table II).

[8] = 200 μM, citrate buffer (pH 5.5), 37° C.
[9] = after incorporation in HBS (15 min)

Compound: CCCCCCCCCCCC(=O)OCC(COP(=O)(O)OCC(N)C(=O)O)OC(=O)CCCCCCCCCCC (stereo not drawn) [DLPS, dilauroylphosphatidylserine]
erythrocyte shape change (human erythrocytes [1]; 200 μM, HBS, 37° C.): became echinocytic initially but rapidly reverted to stomatocytes | erythrocyte shape change (human erythrocytes [1]; [8]): became echinocytic initially but rapidly reverted to stomatocytes

cleavage at pH 3 [2]: 25% | significant cleavage at physiologically desirable pH [2]: did not occur
Compound: CCCCCCCC/C=C\CCCCCCCC(=O)OCC(COP(=O)(O)OCCNC(=O)c1ccccc1C(=O)O)OC(=O)CCCCCCC/C=C\CCCCCCCC (stereo not drawn) [P-DOPE, N-phthalyl-dioleoylphosphatidylethanolamine]

cleavage at pH 3 [2]: 25% | significant cleavage at physiologically desirable pH [2]: did not occur
Compound: CCCCCCCC/C=C\CCCCCCCC(=O)OCC(COP(=O)(O)OCCNC(=O)/C=C\C(=O)O)OC(=O)CCCCCCC/C=C\CCCCCCCC (stereo not drawn) [M-DOPE, N-maleyl-dioleoylphosphatidylethanolamine]

Compound: CCCCCCCCCCCC(=O)OC[C@H](COP(=O)(O)OC[C@H](NC(=O)C(C)=CC(=O)O)C(=O)O)OC(=O)CCCCCCCCCCC [C-DLPS, N-citraconyl-dilauroylphosphatidylserine]
cell shape after back extraction with DOPC vesicles (human erythrocytes [3]; 15 min in HBS, then low pH for additional 60 min): reverted to stomatocytes | transbilayer location of lipid (human erythrocytes [3]; HBS): remains in the outer monolayer | cell shape after back extraction with DOPC vesicles (human erythrocytes [3]; [9]): reverted to discocytes | transbilayer location of lipid (portion) (human erythrocytes [3]; citrate buffer (low pH)): accumulates in the inner monolayer

pH of half-maximal cleavage [2]: 5.5 pH | time constant tau1 (initial fast component) ([4]; citrate buffer pH 5.5, 37° C.): 0.9 h | time constant tau2 (slow component) ([4]; citrate buffer pH 5.5, 37° C.): 7 h | half-time for cleavage [4]: 110 min
Compound: CCCCCCCC/C=C\CCCCCCCC(=O)OC[C@H](COP(=O)(O)OCCNC(=O)/C(C)=C\C(=O)O)OC(=O)CCCCCCC/C=C\CCCCCCCC [C-DOPE, N-citraconyl-dioleoylphosphatidylethanolamine]

Compound: phosphatidylserine [PS]
affinity of flippase relative to PE ([5]; PS versus PE, Zachowski et al., 1986): approximately ten-fold

Compound: N-3,4,5,6-tetrahydrophthalyl-phosphatidylethanolamine [T-DOPE]
cleavage at any pH [2]: not cleaved to any appreciable extent

Compound: citraconyl-dioleoylphosphatidyl-[3-^3 H]serine [C-DOP^3 HS]
cleavage in erythrocytes compared with model membranes (human erythrocytes [6]): followed a similar timecourse and extent in erythrocytes as in model membranes

pH of half-maximal cleavage [2]: 6.5 pH | initial cleavage rate relative to C-DOPE ([4]; citrate buffer pH 5.5, 37° C.): 6 fold | time constant tau1 (initial fast component) ([4]; citrate buffer pH 5.5, 37° C.): 0.15 h | time constant tau2 (slow component) ([4]; citrate buffer pH 5.5, 37° C.): 4.8 h | half-time for cleavage [4]: 85 min | % cleavage - scavenger ([7]; citrate buffer, 2.5 h): 55.2%
Compound: CCCCCCCC/C=C\CCCCCCCC(=O)OC[C@H](COP(=O)(O)OC[C@H](NC(=O)/C(C)=C\C(=O)O)C(=O)O)OC(=O)CCCCCCC/C=C\CCCCCCCC [C-DOPS, N-citraconyl-dioleoylphosphatidylserine]
time cells remain echinocytic (human erythrocytes [1]; HBS, 37° C., 200 μM): more than 1.5 h | cell shape after exchange of buffer to low pH (human erythrocytes [1]; Hepes buffer exchanged for citrate buffer (pH 5.5)): reverted to a more discoid shape | effect of scavengers on slower second rate ([7]; dithiothreitol, ethanol, aniline, p-nitroaniline, DOPE): None of these scavengers attenuated the slower second rate

cleavage at any pH [2]: not cleaved to any appreciable extent
Compound: CCCCCCCC/C=C\CCCCCCCC(=O)OC[C@H](COP(=O)(O)OCCNC(=O)/C(C)=C(/C)C(=O)O)OC(=O)CCCCCCC/C=C\CCCCCCCC [D-DOPE, N-dimethylmaleyl-dioleoylphosphatidylethanolamine]

Compound: [Ca+2] [calcium]
inhibition of flippase [5]: inhibited

Compound: [O]=[V]([O-])([O-])[O-] [vanadate]
inhibition of flippase [5]: inhibited

Compound: CCCCCCCCCCCC(=O)OCC(COP(=O)([O-])OCC[N+](C)(C)C)OC(=O)CCCCCCCCCCC (stereo not drawn) [DLPC, dilauroylphosphatidylcholine]
time echinocytic shape is retained (human erythrocytes [1]; [8]): more than 1.5 h | time to become echinocytic (human erythrocytes [1]; [8]): ≤ 2 min | shape changes at higher pH compared with pH 5.5 (human erythrocytes [1]; higher pH, data not shown): similar | cell shape after back extraction with DOPC vesicles (human erythrocytes [3]; [9]): identical results
